The experiment concerns the target GTPase KRas [G12C,C51S,C80L,C118S] (Homo sapiens, UniProt P01116, C118S/C51S/C80L/G12C). The experiment is described as follows: AlphaScreen Binding Assay.
Description: […]

Broadly, the IC50 is the point on the concentration scale where inhibition reaches its midpoint.

Structures are written as SMILES.

GTPase KRas [G12C,C51S,C80L,C118S], sequence (P01116 whole entry G12C/C51S/C80L/C118S, looked up): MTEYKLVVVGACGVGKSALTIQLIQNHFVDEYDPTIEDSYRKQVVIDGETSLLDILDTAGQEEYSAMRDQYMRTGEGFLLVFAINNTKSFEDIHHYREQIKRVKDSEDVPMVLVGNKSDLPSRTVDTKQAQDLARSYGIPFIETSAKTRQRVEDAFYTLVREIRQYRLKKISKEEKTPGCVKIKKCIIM

Consider `C[C@H](Oc1cc(-n2nccc2-c2ccncc2)nc(-c2noc3c2CCC[C@@]32CCCc3sc(N)c(C#N)c32)n1)[C@@H]1CCCN1C` [US20240174690, Example II-131], for which the IC50 was 4 nM.

The values above are taken from BindingDB's records for patent US20240174690 (Boehringer Ingelheim International, 2024).
